Values of other authors as cited in US20220000160A1, “FLAVONOID DELIVERY SYSTEM” (priority 2019, published 2022).

Question: With `C[C@@H]1O[C@@H](OC[C@H]2O[C@@H](Oc3c(-c4ccc(O)c(O)c4)oc4cc(O)cc(O)c4c3=O)[C@H](O)[C@@H](O)[C@@H]2O)[C@H](O)[C@H](O)[C@H]1O` [Free rutin, quercetin-3-rhamnosylglucoside] as the molecule, how does the solubility in ethanol read?
Answer: Its solubility in ethanol is “about 4 % w/v”.
